Values quoted from earlier work as cited in patent publication US6960354B1, “Membrane lipid compositions” (Phares Technology BV, priority 1999, dated 2005).

solubility in ethanol (ethanol): soluble | solubility in water (water): only sparingly soluble
Structure (SMILES): O=C(O)c1ccccc1O [Salicylic acid]
